Assay results as given in US7563623B2, “Biosensor” (FUJIFILM Corporation, priority 2006, dated 2009).
Like-named read-outs stand apart in the source and are kept apart here.

Assay: Solubility of SAM compounds in water, visual observation after standing at 25° C. for one day
Type: physicochemical
Settings: for water solubility (summary in words): conclusion from Table 1; for solubility at 1 day: water, 25 °C, thermodynamic from solid, 25° C., one day, visual observation, read-out: Solubility (solvent (H2O) allowed to stand at 25° C. for one day)
Description: The mixtures were allowed to stand at 25° C. for one day, followed by observation. […] The symbol “x” indicates a resultant in which precipitation and sedimentation were observed, the symbol “Δ” indicates a resultant in which opacity was observed, and the symbol “◯” indicates a resultant having an achromatic and transparent color. • 16-Hydroxy-1-hexadecanethiol (Frontier Scientific) • 11-Hydroxy-1-undecanethiol (Aldrich) • 8-Hydroxy-1-octanethiol (Aldrich) • 6-Hydroxy-1-hexanethiol (Aldrich) • 11-Amino-1-undecanethiol, hydrochloride (Dojindo Laboratories) • 8-Amino-1-octanethiol, hydrochloride (Dojindo Laboratories) • 6-Amino-1-hexanethiol, hydrochloride (Dojindo Laboratories)

water solubility (summary in words)	solubility at 1 day (SAM concentration 0.1 mM)	solubility at 1 day (SAM concentration 1 mM)	solubility at 1 day (SAM concentration 5 mM)	solubility at 1 day (SAM concentration 20 mM)	SMILES
	< 0.1 mM	< 1 mM	< 5 mM	< 20 mM	OCCCCCCCCCCCCCCCCS [16-Hydroxy-1-hexadecanethiol]
	< 0.1 mM	< 1 mM	< 5 mM	< 20 mM	OCCCCCCCCCCCS [11-Hydroxy-1-undecanethiol]
		< 1 mM	< 5 mM	< 20 mM	Cl.NCCCCCCCCCCCS [11-Amino-1-undecanethiol, hydrochloride]

More lines, now with the values behind:

SMILES	water solubility (summary in words)	solubility at 1 day (SAM concentration 0.1 mM)	solubility at 1 day (SAM concentration 1 mM)	solubility at 1 day (SAM concentration 5 mM)	solubility at 1 day (SAM concentration 20 mM)
Cl.NCCCCCCCCS [8-Amino-1-octanethiol, hydrochloride]	good water solubility	> 0.1 mM	> 1 mM	> 5 mM	> 20 mM
Cl.NCCCCCCS [6-Amino-1-hexanethiol, hydrochloride]	good water solubility	> 0.1 mM	> 1 mM	> 5 mM	> 20 mM
OCCCCCCCCS [8-Hydroxy-1-octanethiol]	good water solubility	> 0.1 mM	> 1 mM	< 5 mM	< 20 mM
OCCCCCCS [6-Hydroxy-1-hexanethiol]	good water solubility	> 0.1 mM	> 1 mM	> 5 mM	< 20 mM
